Experimental data: US20220023317A1, “PREVENTING OR MITIGATING CHEMOTHERAPY INDUCED ALOPECIA USING VITAMIN D” (Berg LLC, priority 2013, published 2022)

Columns and labels:
[1] = test system: Long Evans and Sprague Dawley rats; details: CTX 37.5 mg/kg once i.p.
Experimental: Specifically, Long Evans and Sprague Dawley rats with pups were purchased from Harlan Laboratories, Inc. They were housed and fed according to applicable animal handling rules and regulations. Pups were allowed to acclimate for 48 hours prior to the start of experiments. […] Rats were isolated from their littermates and mother for 6-hour periods of time. Subsequently, the treated area was cleaned with soap and water and pups were returned to their litters. On day 13, rats either received etoposide (1.5 mg/kg daily for 3 days) or cyclophosphamide (CTX) (37.5 mg/kg once) or combination cyclophosphamide (35 mg/kg once) and doxorubicin (2.5 mg/kg daily for 3 days). All chemotherapies were purchased from Sigma and were given intraperitoneally (i.p.) in a total volume of 0.1 mL. Alopecia was recorded 10 days after the last dose of chemotherapy.

Long Evans Rats = assay: Alopecia in chloroleukemic Long Evans rats receiving multi-course chemotherapy; type: in vivo, rat; details: CTX
Description: Animals were then randomized in four groups.
Treatments were started on day 6 after birth.
Unused preparations were disposed of.

MIAC51 = assay: Cure / survival rate of chloroleukemic rats after chemotherapy; type: in vivo, rat; details: CTX, after two rounds of chemotherapy
Experimental: On day 5 after birth all rats received 1×105 MIAC51 intraperitoneally in 0.1 mL of serum free (SF) RPMI. MIAC51 were cultured in RPMI 1640 supplemented with L-glutamine and 10% fetal bovine serum at […] in a 5% CO2, 100% humidity incubator. Cells were grown to 50% confluency (1.5×106 mL) collected in 50 mL conical tubes, centrifuged at 600 g for 10 minutes at room temperature and resuspended in SF-RPMI at a concentration of 1×10^6/mL prior to injection.

Question: How did the “alopecia in control rats that received cyclophosphamide” value [1] turn out when `O=P1(N(CCCl)CCCl)NCCCO1` (stereo not drawn) [CTX] was run?
Answer: totally alopecic

Question: What about the “extent of alopecia (grade)” value (Long Evans Rats; first round of chemotherapy, all rats) of the same molecule?
Answer: +4

Question: What about the “rats with alopecia grade 4+ (number)” value (Long Evans Rats; first round, 4+ = 75-100% alopecia, of 40) of the same molecule?
Answer: 40

Question: What about the “rats with alopecia grade 4+ (number)” value (Long Evans Rats; second round, of 8) of the same molecule?
Answer: 8

Question: And the “% cured / survival rate” value (MIAC51)?
Answer: 20%

Question: What about the “Cured (number of rats)” value (MIAC51; of 40) of the same molecule?
Answer: 8
